Results from US12403107B2, “Lipid pharmaceutical preparation and application thereof” (HUZHOU INNOVATION PHARMACEUTICAL CO., LTD., priority 2019, dated 2025).
Where two headings read alike, the source gives them in different places.

Experiments:
[1] = Blood lidocaine concentration after 2-hour constant-rate intramuscular infusion, literature (Ikeda et al.); type: in vivo, Rats; details: rat, dose 60 mg/kg, infusion t = 0-2 hours, calculated with elimination half-life = 2 hours, read-out: blood drug concentration of lidocaine
[2] = dose 60 mg/kg, infused into the muscle at a constant rate t = 0-2 hours, cited from earlier work

## CCN(CC)CC(=O)Nc1c(C)cccc1C [preparation in the reference, lidocaine]
[1]; time 6 hour
  concentration at 6 h: 400 ng/mL
[1]; time 8 hour
  concentration at 8 h: 200 ng/mL
[1]; time 12 hour
  concentration at 12 h: 100 ng/mL
[1]; time 15 hour
  concentration at 15 h: 35.3 ng/mL
[1]; time 18 hour
  concentration at 18 h: 6.25 ng/mL
[1]; time 24 hour
  concentration at 24 h: 1.6 ng/mL
[1]; time 30 hour
  concentration at 30 h: 0.2 ng/mL
[1]; time 36 hour
  concentration at 36 h: 0 ng/mL
[1]; time 42 hour
  concentration at 42 h: 0 ng/mL
[1]; time 48 hour
  concentration at 48 h: 0 ng/mL
[1]; time 54 hour
  concentration at 54 h: 0 ng/mL
[1]; time 60 hour
  concentration at 60 h: 0 ng/mL
[1]; time 66 hour
  concentration at 66 h: 0 ng/mL
[1]; time 72 hour
  concentration at 72 h: 0 ng/mL
[2]; time 0 hour
  blood drug concentration of lidocaine: 0 ng/mL
[2]; time 0.25 hour
  blood drug concentration of lidocaine: 1900 ng/mL
[2]; time 0.5 hour
  blood drug concentration of lidocaine: 5800 ng/mL
[2]; time 1 hour
  blood drug concentration of lidocaine: 8200 ng/mL
[2]; time 2 hour
  blood drug concentration of lidocaine: 10500 ng/mL
[2]; time 4 hour
  blood drug concentration of lidocaine: 800 ng/mL
